Test results reported in patent US4238472A, “Radioimmunoassay for chlorinated dibenzo-p-dioxins” (priority 1978, dated 1980).

Assays:
antiserum F-12 [1] = assay: Specificity / cross reactivity of the radioimmunoassay, antiserum F-12; type: binding, rabbit
Description: (§1) Since TCDD itself has no chemically reactive functional groups, a derivative was synthesized that retained most of the structural features of TCDD but with the addition of a reactive site. This derivative was coupled to an immunogenic protein carrier, such as bovine serum albumin, rabbit serum albumin, etc., so that animals would respond to it by producing an antiserum containing antibodies. A second compound was synthesized, still structurally similar to TCDD so that it would bind to the antibodies, but capable of being labeled with ^125 I for detectability at the picogram level. An amount of antiserum capable of binding about 20 pg of ^125 I-labeled dioxin derivative (hapten) is preincubated with the detergent emulsion of the sample extract (possibly containing TCDD). Then the mixture is incubated with the ^125 I-labeled derivative long enough for equilibrium binding to occur and form the hapten-antibody complex. A second antibody, namely, goat antibodies against rabbit gamma-globulin (i.e., goat anti-rabbit γ-globulin) are then added to precipitate the antibody ^125 I-labeled dioxin complex, and the amount of ^125 I in the precipitate is determined. The extent to which preincubation with the test material inhibits or decreases the amount of ^125 I precipitated relative to the amount precipitated in the absence of test material is a measure of the amount of chlorodibenzodioxin in the test sample.
(§2) Radioimmunoassay of small molecules requires some means of separating free hapten from antibody-bound hapten. The procedure used in the present invention, chosen because of its compatibility with detergent-solubilized hapten, involved precipitating the antibody-hapten complex with a second antibody, namely, goat antibodies against rabbit gamma-globulin. In this assay chlorodibenzodioxin from the environmental sample completes with the ^125 I-labeled hapten for binding to the antibody. Thus, the decrease in precipitation of radioactivity is a measure of the amount of (unlabeled) hapten in the test sample.
(§3) The assay buffer (hereinafter referred to as "PBS") contained, per liter, 20 mmol of potassium phosphate, 140 mmol of NaCl, and 200 mg of sodium azide. The pH was adjusted to 7.3 with NaOH. Antiserum was diluted with PBS also containing 0.1% bovine gamma globulin and 0.02% rabbit gamma globulin (w/v). Each assay tube from procedure G above received 0.2 ml of PBS, after which the tubes were held in the sonicator for 40 minutes and then cooled to room temperature. Appropriately diluted antiserum or, as control, antiserum diluant was added (0.2 ml) and, after vortex-mixing, the tubes were incubated for 40 minutes at 37°. 14000 disintegrations per minute (hereafter referred to as "DPM") or 7000 counts per minute (hereinafter referred to as "CPM", which equals DPM×counting efficiency) of [^125 I]-iodovaleramide derivative of trichlorodibenzo-p-dioxin in PBS containing 1% "Cutscum" were then added to each tube (approximately 10 μl), vortex mixed, and the tubes incubated for 1 hour at 37° followed by an additional 65 hours of incubation at 4°. Each tube next received 1.24 units of goat anti-rabbit gamma globulin in 0.2 ml of PBS containing 0.05 mM ethylenediamine tetracetic acid (hereinafter referred to as "EDTA"), was vortex mixed, and incubated for 5 hours at 4°. The tubes were centrifuged at 500×g for 20 minutes at 4°. The supernates were poured off and the tubes allowed to drain into Whatman #3 MM paper for 10 minutes. The precipitate or pellets obtained were then radioassayed for ^125 I, with 10 minute count cycles.
(§4) Standard curves were prepared using sequential two-fold dilutions of TCDD or other test compounds in benzene and evaporating the solvent as described above. Both control (blank) and TCDD-spiked tissues were extracted and processed as described above to determine general interference and recoveries. All samples were run in triplicate. […]

guinea pig = settings: cited from earlier work
[2] = Determination of 2,3,7,8-TCDD in monkey tissue by radioimmunoassay; type: in vivo, Rhesus Monkeys (Macaca muletta); settings: antiserum F12, "Cutscum"
Description: Blend 10 g of tissue in 200 ml of chloroform:methanol, 2:1 (v/v). Filter with suction through glass fiber filter paper (Reeve Angel grade 934AH or equivalent). Return the filter paper and cake to the blender jar and blend with 100 ml of chloroform:methanol, 2:1 (v/v). Filter as above ad combine filtrates. Add 52 ml of 1.2% aqueous KCl, mix well, let phases clear, and collect the lower phase in a 500 ml round bottom flask. Evaporate just to dryness at 40° using a rotary evaporator and water aspirator. This is a modification of the method of Folch et al [J.Biol.Chem.,236,497 (1957)].
Grind together 8 g of anhydrous sodium sulfate per gram of adipose, using a mortar and pestle. Extract the resulting powder with chloroform in a Soxhlet extractor, allowing at least 8 cycles.
Leach the lipid residue from 10 g of liver, 100 ml of blood or 1 g of adipose into 15 ml of CCl4. Partition against 15 ml of con.H2 SO4. Centrifuge at 2000 rpm for 30 minutes. Remove as much of the CCl4 layer as possible and record the volume recovered. Pass the CCl4 solution through anhydrous Na2 CO3 in a glass wool-plugged funnel, rinising the Na2 CO3 with 2 ml of fresh CCl4. Concentrate the filtrate just to dryness on a rotary evaporator at 40°. Leach the residue into 1.5 ml of n-hexane:methylene chloride, 97:3 (v/v).
as §3, with “Each tube next received 1.24 units of goat anti-rabbit gamma globulin in 0.2 ml of PBS containing 0.05 mM ethylenediamine tetracetic acid (hereinafter referred to as "EDTA"), was vortex mixed, and incubated for 5 hours at 4°. The tubes were centrifuged at 500×g for 20 minutes at 4°. The supernates were poured off and the tubes allowed to drain into Whatman #3 MM paper for 10 minutes. The precipitate or pellets obtained were then radioassayed for ^125 I, with 10 minute count cycles.” left out
Using spiked, sandy soil samples, the inventors were able to detect 0.7 picomole of 2,3,7,8-TCDD using "Cutsum" and either antiserum. With "Triton X-305" replacing the "Cutscum", as little as 0.08 picomole of 2,3,7,8-TCDDcould be detected. […]

antiserum GC-5 = assay: Cross reactivity in chlorinated DBD radioimmunoassay, antiserum GC-5; type: binding, rabbit
Description: as §1, §2, §3, §4

[3] = Determination of 2,3,7,8-TCDD in monkey tissue by gas chromatography with electron capture detector; type: in vivo, Rhesus Monkeys (Macaca muletta)
Description: (§5) Using spiked, sandy soil samples, the inventors were able to detect 0.7 picomole of 2,3,7,8-TCDD using "Cutsum" and either antiserum. With "Triton X-305" replacing the "Cutscum", as little as 0.08 picomole of 2,3,7,8-TCDDcould be detected. These levels of sensitivity required that a dilution of antiserum (usually about 1:9000) be used that would bind 33% of the ^125 I-labeled hapten. To test the applicability of this assay to tissue samples, the inventors obtained liver and adipose samples from monkeys that had been used in a toxicity study involving 2,3,7,8-TCDD [as described by E. E.McConnell et al in "Toxicity of 2,3,7,8-tetrachlorodibenzo-p-dioxin in Rhesus Monkeys (Macaca muletta) Following a Single Oral Dose", appearing in Toxicol. Appl. Pharmacol. 43/1,175-187(1978)]. Sample size ranged from 3 to 50 mg of tissue for the radioimmunoassay, while 200 mg samples were used for comparison assays by gas chromatography with either negative chemical ionization mass spectrometry [as described by J. R. Hass et al in "Determination of Polychlorinated Dibenzo-p-Dioxins in Biological Samples by Negative Chemical Ionization Mass Spectrometry", appearing in Anal. Chem. 50/11, 1471-1479 (1978)], or an electron capture detector as measuring device.
(§6) ^a Monkeys 373 and 374 were controls and dosed orally with corn oil
alone. Monkeys 380 and 391 were experimental and received a single oral
dose of 70 μg/kg or 350 μg/kg TCDD in corn oil, respectively.
GCEC = Gas chromatography with electron capture detector.

[4] = Determination of 2,3,7,8-TCDD in monkey tissue by gas chromatography with negative ion mass spectrometry; type: in vivo, Rhesus Monkeys (Macaca muletta)
Description: as §5, §6
alone. Monkeys 380 and 391 were experimental and received a single oral […]

[5] = in vivo; cited from earlier work
antiserum F-12 [6] = assay: Specificity / cross reactivity of the radioimmunoassay, antiserum F-12; type: binding, rabbit; settings: incubation times between 2 and 65 hours; "Cutscum"
[7] = monkey 380, adipose, single oral dose 70 μg/kg
[8] = monkey 380, liver, single oral dose 70 μg/kg
[9] = monkey 391, adipose, single oral dose 350 μg/kg
[10] = monkey 391, liver, single oral dose 350 μg/kg

SMILES	reactivity with F-12 (2,3,7,8-tetrachlorodibenzo-p-dioxin v 2,3,7,8-tetrachlorodibenzofuran) (antiserum F-12 [1])	Cross Reactivity, Antiserum F-12: 100 × (inhibition of 125I binding by 4 pmole of test compound)/(inhibition by 4 pmole of 2,3,7,8-TCDD) (antiserum F-12 [1]) [%]	acute oral LD50 (guinea pig)	TCDD in tissue, RIA [2, 7] [ppb]	TCDD in tissue, RIA [2, 8] [ppb]	TCDD in tissue, RIA [2, 9] [ppb]	TCDD in tissue, RIA [2, 10] [ppb]	binding by the antibodies in GC-5 (antiserum GC-5)	Cross Reactivity, Antiserum GC-5: 100 × (inhibition of 125I binding by 4 pmole of test compound)/(inhibition by 4 pmole of 2,3,7,8-TCDD) (antiserum GC-5) [%]	maximum inhibition of binding of 125I-labeled hapten (antiserum GC-5; GC-5 diluted such that 33% of the label was bound in the absence of competitors)	TCDD in tissue, GC-EC [3, 7] [ppb]	TCDD in tissue, GC-EC [3, 8] [ppb]	TCDD in tissue, GC-EC [3, 9] [ppb]	TCDD in tissue, GC-EC [3, 10] [ppb]	TCDD in tissue, GM-MS [4, 7] [ppb]	TCDD in tissue, GM-MS [4, 9] [ppb]	toxicity relative to TCDD [5]	ratio of inhibition by 5 ng of 2,3,7,8-DBF to that of 2,3,7,8-DBD (antiserum F-12 [6])
Clc1cc2c(cc1Cl)Oc1cc(Cl)c(Cl)cc1O2 [2,3,7,8-TCDD, 2,3,7,8-tetrachlorodibenzo-p-dioxin]	approximately the same reactivity	100	less than 1 microgram per kg	41	20	1800	94	Essentially all of these antibodies (in GC-5) also bind 2,3,7,8-TCDD	100	up to 97%	87	17	1810	30	28	1740	–	–
Clc1cc2c(cc1Cl)Oc1c(cc(Cl)c(Cl)c1Cl)O2 [1,2,3,7,8-Cl5 Dibenzo-p-Dioxin]	–	97	–	–	–	–	–	–	99	–	–	–	–	–	–	–	toxicities comparable to that of TCDD	–
Clc1cc2oc3cc(Cl)c(Cl)cc3c2cc1Cl [2,3,7,8-Cl4 Dibenzofuran, 2,3,7,8-tetrachlorodibenzofuran]	approximately the same reactivity	92	–	–	–	–	–	–	25	–	–	–	–	–	–	–	–	constant
